The subject of assay [1] is patients with NIDDM. Particulars: oral administration; cited from earlier work.
Assay [2] can be described thus: Effects on animal body weight in STZ-induced hyperglycemia. The class given is in vivo. The settings on record: STZ-treated rats, 100 mg/Kg oral.
The subject of assay [3] is Steptozocine(STZ)-induced male Wistar rats. The experiment in a line: Effect of high doses of the inventive complex, blood sugar over 21 days. The class given is in vivo. Particulars: 100 mg/Kg oral (S-2: Cr3+ 1,000 μg/Kg; chromium picolinate: Cr3+ 700 μg/Kg), concurrently with STZ 40 mg/Kg s.c.
Assay [4] deals with STZ-induced diabetic rats. The assay can be described thus: Repairing damaged β-cells: treatment of STZ-induced diabetic rats for further 21 days. The class given is in vivo. The method, then:
In another set of experiments, STZ-induced diabetic rats, after 21 days, were administered the invention test complex compounds: S-1 (50 mg/Kg, p.o.), S-2 (100 mg/Kg, p.o.), Chromium picolinate (100 mg/Kg, p.o.), Example-1A (100 mg/Kg., p.o.), per day for further 21 days. This experiment was conducted with a view to assessing the repair aspect of the damaged β-cells by the test compounds.

For assay [5], the system named is Steptozocine(STZ)-induced male albino rats. The experiment in a line: Screening of antidiabetic activity, blood sugar lowering action. The class given is in vivo. The settings on record: 300 μg/Kg oral, 48 hr after STZ.
The subject of assay [6] is rats with diabetes induced by chemical destruction of β-cells. Particulars: 1% taurine in the drinking water; cited from earlier work.
Assay [7] relates to patients with coronary heart disease. Particulars: 60 mg twice daily oral, after 8 weeks; cited from earlier work.
In assay [8] the test system is obese Zucker rat. Particulars: dietary Vitamin E; cited from earlier work.
Assay [9] relates to GK rat. The settings on record: Vitamin E supplementation; cited from earlier work.

For the molecule `O=C(O)CCCC[C@@H]1CCSS1` (racemic) [lipoic acid], the insulin-mediated glucose uptake result in [1] is “significantly increased”.
As for Chromium picolinate, the “Body Weight in gm, day 1” value in assay [2] (day 1) turned out to be 166 ± 8 gm. Further, the “Body Weight in gm, day 7” value in assay [2] (day 7) stood at 180 ± 7 gm. For the same molecule, the “Body Weight in gm, day 14” value in assay [2] (day 14) was 168 ± 9 gm. Also, in [2] (day 21), the “Body Weight in gm, day 21” value is recorded as 172 ± 9 gm. For the same molecule, the “Blood Sugar Values (Arterial Blood), day 7” value in assay [3] (day 7) worked out at 88.7 ± 4.4. The “Blood Sugar Values (Arterial Blood), day 14” value in assay [3] (day 14) was 94.3 ± 7.2. The “Blood Sugar Values (Arterial Blood), day 21” value in [3] (day 21) is given as 92.5 ± 3.5. The “% Change from day 1 (glucose)” value in assay [4] (100 mg/Kg p.o. per day for 21 days, started 21 days after STZ, day 21 vs day 1) was “+14 ↑ %”. Also, in assay [4] (100 mg/Kg p.o. per day, started 21 days after STZ, day 1), the “Glucose (mg/dl) values; mean ± SE, day 1” value worked out at 253.2 ± 7.7 mg/dL. Moreover, the “Glucose (mg/dl) values; mean ± SE, day 7” value in assay [4] (100 mg/Kg p.o. per day, started 21 days after STZ, day 7) was determined as 302.8 ± 18.0 mg/dL. Moreover, in [4] (100 mg/Kg p.o. per day, started 21 days after STZ, day 14), the “Glucose (mg/dl) values; mean ± SE, day 14” value was 294.3 ± 20.4 mg/dL. Besides, in [4] (100 mg/Kg p.o. per day, started 21 days after STZ, day 21), the “Glucose (mg/dl) values; mean ± SE, day 21” value came to 289.6 ± 9.0 mg/dL. The “effect on progressive increase in hyperglycemia (post STZ-treatment)” value in [4] (diabetic rats treated p.o. for 21 days) is given as “no beneficial effect”.
As to Chromium polynicotinate [Example N-7], the “Fasting Serum Glucose (mg/dl) (mean ± SEM)” value in assay [5] (3 days before and 2 days after STZ 50 mg/Kg i.v., 18 hr fasting) came to 141.30 ± 9.54 mg/dL. Besides, the “% Inhibition (of fasting serum glucose vs STZ)” value in assay [5] (3 days before and 2 days after STZ) was determined as 58.25%.
Take `NCCS(=O)(=O)O` [taurine]: in [6], the renal oxidant injury result is given as “reduced”.
For the molecule `COC1=C(OC)C(=O)C(C/C=C(\C)CC/C=C(\C)CC/C=C(\C)CC/C=C(\C)CC/C=C(\C)CC/C=C(\C)CC/C=C(\C)CC/C=C(\C)CC/C=C(\C)CCC=C(C)C)=C(C)C1=O` [coenzyme Q10], in assay [7], the “plasma levels of insulin (fasting and 2-hr), glucose, and lipid peroxides, as compared to the control group” value was “reduced”.
Consider Vitamin E, for which, in assay [8], the “glucose-stimulated hyper-insulinemia and lipid peroxidation” value is reported as “significantly reduced”. Moreover, the glycemic control result in assay [9] was “significantly improved”.
